Measured values reported in US20250195513A1, “DEGRADATION OF IRAK4 BY CONJUGATION OF IRAK4 INHIBITORS WITH E3 LIGASE LIGAND AND METHODS OF USE” (BeiGene, Ltd., priority 2022, published 2025).

Columns and labels:
IRAK4 [1] = molecular target: T1, IRAK4 (Homo sapiens, UniProt Q9NWZ3); assay: IRAK4 Degradation Assay (Karpas299, HTRF/TR-FRET); format: cell-based; settings: Karpas-299 cells; for Dmax: maximum percentage of degradation
T1 construct: endogenous in cells; host or cells: Karpas299
T1 sequence (Q9NWZ3 1-460): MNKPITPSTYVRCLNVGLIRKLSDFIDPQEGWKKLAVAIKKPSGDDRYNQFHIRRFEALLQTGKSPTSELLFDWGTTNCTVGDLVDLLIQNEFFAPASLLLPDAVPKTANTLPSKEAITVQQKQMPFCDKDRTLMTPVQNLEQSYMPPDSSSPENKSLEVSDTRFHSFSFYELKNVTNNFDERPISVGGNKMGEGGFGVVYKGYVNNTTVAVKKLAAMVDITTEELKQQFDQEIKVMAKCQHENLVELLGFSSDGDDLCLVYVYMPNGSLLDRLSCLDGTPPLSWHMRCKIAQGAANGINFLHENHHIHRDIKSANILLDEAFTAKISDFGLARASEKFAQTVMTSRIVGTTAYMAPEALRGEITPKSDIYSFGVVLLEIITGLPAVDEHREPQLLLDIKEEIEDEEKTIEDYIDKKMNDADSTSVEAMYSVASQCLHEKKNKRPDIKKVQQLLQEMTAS
Method in brief: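 Karpas299 cells at 0.2 million per well were exposed to serially diluted compounds for 24 h or 5 h, then lysed. IRAK4 remaining in lysates was quantified by HTRF (665/620 nm) after overnight antibody incubation at room temperature. Percent degradation was fitted to a four-parameter curve to give IC50 (DC50).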

IRAK4 [2] = molecular target: T1, IRAK4; assay: IRAK4 Degradation Assay with Human Serum (Karpas299, HTRF/TR-FRET); format: cell-based; settings: Karpas-299 in human serum, 24 hrs treatment; for DC50: read-out: IRAK4 degradtion with human serum assay DC50; for Dmax: read-out: IRAK4 degradtion with human serum assay Dmax (%)
Method in brief: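 Karpas299 cells in human AB serum (0.2 million/well) treated with serial compound dilutions for 24 h. After lysis, IRAK4 quantified by HTRF (overnight antibody incubation at room temperature, 665/620 nm read). Degradation percentage fitted to four-parameter curve to give DC50.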

[3] = 24 h treatment, read-out: IRAK4 in Karpas-299 (24 h) Dmax (%)
[4] = 24 h treatment, read-out: IRAK4 in Karpas-299 (24 h) DC50

Dmax (IRAK4 [1]; 5 h treatment, read-out: IRAK4 in Karpas-299 (5 h) Dmax (%)) [%] | DC50 (IRAK4 [1]; 5 h treatment, read-out: IRAK4 in Karpas-299 (5 h) DC50) [nM] | Dmax (IRAK4 [1]; [3]) [%] | DC50 (IRAK4 [1]; [4]) [nM] | DC50 (IRAK4 [2]) [nM] | Dmax (IRAK4 [2]) [%] | SMILES
96 | 2.7 | 97 | 1.2 | 7.8 | 96 | CC(C)(O)c1cc2nn([C@H]3CC[C@H](N4CCN(C(=O)C5CN(c6ccc(C7CCC(=O)NC7=O)nc6)C5)CC4)CC3)cc2cc1NC(=O)c1ccc2cc(C#N)cnn12 (some centres unmarked) [Example 255, 3-cyano-N-(2-((1r,4r)-4-(4-(1-(6-(2,6-dioxopiperidin-3-yl)pyridin-3-yl)azetidine-3-carbonyl)piperazin-1-yl)cyclohexyl)-6-(2-hydroxypropan-2-yl)-2H-indazol-5-yl)pyrrolo[1,2-b]pyridazine-7-carboxamide]
 |  | 95 | 0.9 | 5.5 | 87 | COC[C@H]1CN([C@H]2CC[C@H](n3cc4cc(NC(=O)c5ccc6cc(C#N)cnn56)c(C(C)(C)O)cc4n3)CC2)CCN1CC1CCN(c2ccc3c(c2)CN(C2CCC(=O)NC2=O)C3=O)CC1 (stereo partly drawn) [Example 402, 3-cyano-N-(2-((1R,4r)-4-((3R)-4-((1-(2-(2,6-dioxopiperidin-3-yl)-1-oxoisoindolin-5-yl)piperidin-4-yl)methyl)-3-(methoxymethyl)piperazin-1-yl)cyclohexyl)-6-(2-hydroxypropan-2-yl)-2H-indazol-5-yl)pyrrolo[1,2-b]pyridazine-7-carboxamide]
 |  | 95 | 0.8 | 15 | 97 | CC(C)(O)c1cc2nn([C@H]3CC[C@H](CN4CCN(C5CN(c6cc(F)c([C@H]7CCC(=O)NC7=O)c(F)c6)C5)CC4)CC3)cc2cc1NC(=O)c1ccc2cc(C#N)cnn12 [Example 421, 3-cyano-N-(2-((1r,4r)-4-((4-(1-(4-((R)-2,6-dioxopiperidin-3-yl)-3,5-difluorophenyl)azetidin-3-yl)piperazin-1-yl)methyl)cyclohexyl)-6-(2-hydroxypropan-2-yl)-2H-indazol-5-yl)pyrrolo[1,2-b]pyridazine-7-carboxamide]
 |  | 95 | 0.6 | 6.3 | 94 | CC(C)(O)c1cc2nn([C@H]3CC[C@H](N4CCN(CCc5cc(F)c([C@H]6CCC(=O)NC6=O)c(F)c5)CC4=O)CC3)cc2cc1NC(=O)c1ccc2cc(C#N)cnn12 [Example 334, 3-cyano-N-(2-((1R,4r)-4-(4-(4-((R)-2,6-dioxopiperidin-3-yl)-3,5-difluorophenethyl)-2-oxopiperazin-1-yl)cyclohexyl)-6-(2-hydroxypropan-2-yl)-2H-indazol-5-yl)pyrrolo[1,2-b]pyridazine-7-carboxamide]
 |  | 96 | 2.1 | 10 | 89 | COc1cc2nn([C@H]3CC[C@H](N4CCN(CCc5cc(F)c([C@H]6CCC(=O)NC6=O)c(F)c5)CC4)CC3)cc2cc1NC(=O)c1ccc2cc(C#N)cnn12 [Example 337, 3-cyano-N-(2-((1R,4r)-4-(4-(4-((R)-2,6-dioxopiperidin-3-yl)-3,5-difluorophenethyl)piperazin-1-yl)cyclohexyl)-6-methoxy-2H-indazol-5-yl)pyrrolo[1,2-b]pyridazine-7-carboxamide]
 |  | 94 | 1.8 | 6.1 | 100 | COC[C@@H]1CN([C@H]2CC[C@H](n3cc4cc(NC(=O)c5ccc6cc(C#N)cnn56)c(C(C)(C)O)cc4n3)CC2)CCN1C1CCN(c2ccc(C3CCC(=O)NC3=O)nc2C)CC1 (stereo partly drawn) [Example 418, 3-cyano-N-(2-((1S,4r)-4-((3S)-4-(1-(6-(2,6-dioxopiperidin-3-yl)-2-methylpyridin-3-yl)piperidin-4-yl)-3-(methoxymethyl)piperazin-1-yl)cyclohexyl)-6-(2-hydroxypropan-2-yl)-2H-indazol-5-yl)pyrrolo[1,2-b]pyridazine-7-carboxamide]
